Experimental data reported in patent US6703362B1, “Random peptides that bind to gastro-intestinal tract (GIT) transport receptors and related methods” (Cytogen Corporation, priority 1997, dated 2004).
Peptide text beside a SMILES is read from it. * marks the point of attachment. Dansyl = CN(C)c1cccc2c(S(=O)(=O)*)cccc12

Test system: P100 membrane fractions derived from Caco-2 cells
Test: Dansylated peptide ELISA: relative binding of PAX2 and HAX42 peptides to P100 (ratio to ZElan021)
Settings: ratio to ZElan021 = 1.00
Protocol: The peptides and proteins were analyzed by a dansylated peptide ELISA method in which 96 well plates were coated overnight at 4° C. with 100 μl/well coating protein (normally 100 μg/ml P100 membrane fraction) in 0.05M carbonate buffer pH9.6. Nonspecific binding was blocked using 200 μl/well, 2% Marvel/PBS for 2 hours at 37° C. prior to incubation with dansylated peptides. The plates were washed three times with PBS/0.05% Tween 20 and after each subsequent incubation step. […] A buffer blank control was included to ensure that background binding to plastic was not due to the antibodies used in the assay system. […] The plates were then incubated with an anti-mouse X-HRP conjugated antibody (Southern Biotech 1060-05) at a 1:10,000 dilution in blocking solution, 100 μl/well for 1 hour at room temperature. Plates were developed using 75 μl/well Bionostics TMB substrate and incubated for approximately 10 minutes. The developing reaction was stopped using Bionostics Red Stop solution (25 μl/well), and the optical density of the plates was read at 650nm.

[1] = PAX2 peptides, first 20 μg/ml column
[2] = PAX2 peptides, first 50 μg/ml column
[3] = PAX2 peptides, second 50 μg/ml column

Compound | Binding value at 20 μg/ml (HAX42 peptides) | Binding value at 50 μg/ml (HAX42 peptides, first 50 μg/ml column) | Binding value at 50 μg/ml (HAX42 peptides, second 50 μg/ml column) | Binding value at 50 μg/ml (Jackson Ab) (PAX2 peptides) | Binding value at 50 μg/ml (Southern Ab) (PAX2 peptides) | Binding value at 20 μg/ml [1] | Binding value at 50 μg/ml [2] | Binding value at 50 μg/ml [3] | Binding value at 20 μg/ml (PAX2 peptides, second 20 μg/ml column)
CC[C@H](C)[C@H](NC(=O)[C@H](C)NC(=O)[C@H](CO)NC(=O)[C@@H]1CCCN1C(=O)[C@H](CCCNC(=N)N)NC(=O)[C@H](CCCNC(=N)N)NC(=O)[C@H](CC(N)=O)NC(=O)[C@H](Cc1ccccc1)NC(=O)[C@@H](NC(=O)[C@H](CCCCN)NC(=O)[C@H](CCCNC(=N)N)NC(=O)CNC(=O)[C@@H](NC(=O)[C@H](CO)NC(=O)[C@H](CC(N)=O)NC(=O)CNC(=O)[C@H](CC(N)=O)NC(=O)CNC(=O)[C@H](CS)NC(=O)[C@H](CS)NC(=O)[C@H](CC(N)=O)NC(=O)[C@H](Cc1ccc(O)cc1)NC(=O)[C@H](CC(=O)O)NC(=O)CNC(=O)[C@@H]1CCCN1C(=O)[C@@H](N)CCCCNS(=O)(=O)c1cccc2c(N(C)C)cccc12)[C@@H](C)O)C(C)C)C(=O)N1CCC[C@H]1C(=O)N[C@H](C(N)=O)[C@@H](C)O [ZElan072] (H-K(Dansyl)PGDYNCCGNGNSTGRKVFNRRPSAIPT-NH2) | 0.83 | 0.61 | 0.88 | – | – | – | – | – | –
CC(C)C[C@H](NC(=O)[C@H](CCCNC(=N)N)NC(=O)[C@H](CCCNC(=N)N)NC(=O)[C@H](CC(N)=O)NC(=O)[C@H](Cc1c[nH]cn1)NC(=O)[C@H](CO)NC(=O)[C@H](C)NC(=O)[C@@H](N)CCCCNS(=O)(=O)c1cccc2c(N(C)C)cccc12)C(=O)N[C@@H](CCCNC(=N)N)C(=O)N[C@H](C(=O)N[C@@H](CCCNC(=N)N)C(N)=O)[C@@H](C)O [ZElan073] (H-K(Dansyl)ASHNRRLRTR-NH2) | – | – | – | 0.66 | 0.49 | 0.07 | −0.11 | 0.49 | –
CC(C)C[C@H](NC(=O)[C@H](CCCNC(=N)N)NC(=O)[C@H](CCCNC(=N)N)NC(=O)[C@H](CC(N)=O)NC(=O)[C@H](Cc1c[nH]cn1)NC(=O)[C@H](C)NC(=O)[C@H](CO)NC(=O)[C@@H](N)CCCCNS(=O)(=O)c1cccc2c(N(C)C)cccc12)C(=O)N[C@@H](CCCNC(=N)N)C(=O)N[C@H](C(=O)N[C@@H](CCCNC(=N)N)C(N)=O)[C@@H](C)O [ZElan074] (H-K(Dansyl)SAHNRRLRTR-NH2) | – | – | – | 0.71 | 0.48 | 0.06 | 0.82 | 0.52 | –
CC(C)C[C@H](NC(=O)[C@H](CCCNC(=N)N)NC(=O)[C@H](CCCNC(=N)N)NC(=O)[C@H](CC(N)=O)NC(=O)[C@H](C)NC(=O)[C@H](CO)NC(=O)[C@H](CO)NC(=O)[C@@H](N)CCCCNS(=O)(=O)c1cccc2c(N(C)C)cccc12)C(=O)N[C@@H](CCCNC(=N)N)C(=O)N[C@H](C(=O)N[C@@H](CCCNC(=N)N)C(N)=O)[C@@H](C)O [ZElan075] (H-K(Dansyl)SSANRRLRTR-NH2) | – | – | – | 0.47 | 0.32 | 0.13 | 0.52 | 0.38 | –
CC(C)C[C@H](NC(=O)[C@H](CCCNC(=N)N)NC(=O)[C@H](CCCNC(=N)N)NC(=O)[C@H](C)NC(=O)[C@H](Cc1c[nH]cn1)NC(=O)[C@H](CO)NC(=O)[C@H](CO)NC(=O)[C@@H](N)CCCCNS(=O)(=O)c1cccc2c(N(C)C)cccc12)C(=O)N[C@@H](CCCNC(=N)N)C(=O)N[C@H](C(=O)N[C@@H](CCCNC(=N)N)C(N)=O)[C@@H](C)O [ZElan076] (H-K(Dansyl)SSHARRLRTR-NH2) | – | – | – | 0.60 | 0.42 | 0.08 | 1.00 | 0.41 | –
CC(C)C[C@H](NC(=O)[C@H](CCCNC(=N)N)NC(=O)[C@H](C)NC(=O)[C@H](CC(N)=O)NC(=O)[C@H](Cc1c[nH]cn1)NC(=O)[C@H](CO)NC(=O)[C@H](CO)NC(=O)[C@@H](N)CCCCNS(=O)(=O)c1cccc2c(N(C)C)cccc12)C(=O)N[C@@H](CCCNC(=N)N)C(=O)N[C@H](C(=O)N[C@@H](CCCNC(=N)N)C(N)=O)[C@@H](C)O [ZElan077] (H-K(Dansyl)SSHNARLRTR-NH2) | – | – | – | 0.73 | 0.52 | 0.20 | 0.76 | 0.54 | –
CC(C)C[C@H](NC(=O)[C@H](C)NC(=O)[C@H](CCCNC(=N)N)NC(=O)[C@H](CC(N)=O)NC(=O)[C@H](Cc1c[nH]cn1)NC(=O)[C@H](CO)NC(=O)[C@H](CO)NC(=O)[C@@H](N)CCCCNS(=O)(=O)c1cccc2c(N(C)C)cccc12)C(=O)N[C@@H](CCCNC(=N)N)C(=O)N[C@H](C(=O)N[C@@H](CCCNC(=N)N)C(N)=O)[C@@H](C)O [ZElan078] (H-K(Dansyl)SSHNRALRTR-NH2) | – | – | – | 0.68 | 0.47 | 0.11 | 0.87 | 0.69 | –
C[C@H](NC(=O)[C@H](CCCNC(=N)N)NC(=O)[C@H](CCCNC(=N)N)NC(=O)[C@H](CC(N)=O)NC(=O)[C@H](Cc1c[nH]cn1)NC(=O)[C@H](CO)NC(=O)[C@H](CO)NC(=O)[C@@H](N)CCCCNS(=O)(=O)c1cccc2c(N(C)C)cccc12)C(=O)N[C@@H](CCCNC(=N)N)C(=O)N[C@H](C(=O)N[C@@H](CCCNC(=N)N)C(N)=O)[C@@H](C)O [ZElan079] (H-K(Dansyl)SSHNRRARTR-NH2) | – | – | – | 0.83 | 0.53 | 0.31 | 0.97 | 0.68 | –
CC(C)C[C@H](NC(=O)[C@H](CCCNC(=N)N)NC(=O)[C@H](CCCNC(=N)N)NC(=O)[C@H](CC(N)=O)NC(=O)[C@H](Cc1c[nH]cn1)NC(=O)[C@H](CO)NC(=O)[C@H](CO)NC(=O)[C@@H](N)CCCCNS(=O)(=O)c1cccc2c(N(C)C)cccc12)C(=O)N[C@@H](C)C(=O)N[C@H](C(=O)N[C@@H](CCCNC(=N)N)C(N)=O)[C@@H](C)O [ZElan080] (H-K(Dansyl)SSHNRRLATR-NH2) | – | – | – | 0.67 | 0.38 | 0.23 | 0.84 | 0.45 | –
CC(C)C[C@H](NC(=O)[C@H](CCCNC(=N)N)NC(=O)[C@H](CCCNC(=N)N)NC(=O)[C@H](CC(N)=O)NC(=O)[C@H](Cc1c[nH]cn1)NC(=O)[C@H](CO)NC(=O)[C@H](CO)NC(=O)[C@@H](N)CCCCNS(=O)(=O)c1cccc2c(N(C)C)cccc12)C(=O)N[C@@H](CCCNC(=N)N)C(=O)N[C@@H](C)C(=O)N[C@@H](CCCNC(=N)N)C(N)=O [ZElan081] (H-K(Dansyl)SSHNRRLRAR-NH2) | – | – | – | – | – | 0.01 | 0.89 | 0.47 | –
CC(C)C[C@H](NC(=O)[C@H](CCCNC(=N)N)NC(=O)[C@H](CCCNC(=N)N)NC(=O)[C@H](CC(N)=O)NC(=O)[C@H](Cc1c[nH]cn1)NC(=O)[C@H](CO)NC(=O)[C@H](CO)NC(=O)[C@@H](N)CCCCNS(=O)(=O)c1cccc2c(N(C)C)cccc12)C(=O)N[C@@H](CCCNC(=N)N)C(=O)N[C@H](C(=O)N[C@@H](C)C(N)=O)[C@@H](C)O [ZElan082] (H-K(Dansyl)SSHNRRLRTA-NH2) | – | – | – | – | – | 0.00 | 0.92 | 0.40 | –
CC(C)C[C@H](NC(=O)[C@H](CCCNC(=N)N)NC(=O)[C@H](CO)NC(=O)[C@@H](NC(=O)[C@H](CCCCN)NC(=O)[C@H](CC(N)=O)NC(=O)[C@H](CCCNC(=N)N)NC(=O)[C@@H](NC(=O)[C@H](CC(N)=O)NC(=O)[C@H](CCCNC(=N)N)NC(=O)[C@@H](N)CCCCNS(=O)(=O)c1cccc2c(N(C)C)cccc12)[C@@H](C)O)[C@@H](C)O)C(=O)N[C@@H](CO)C(=O)N[C@@H](C)C(=O)N[C@@H](CC(N)=O)C(=O)N1CCC[C@H]1C(=O)N[C@@H](Cc1c[nH]cn1)C(=O)N[C@@H](CCCNC(=N)N)C(=O)N[C@@H](CO)C(=O)N[C@@H](Cc1c[nH]cn1)C(=O)N[C@@H](CCCNC(=N)N)C(N)=O [ZElan084, reference compound] (H-K(Dansyl)RNTRNKTSRLSANPHRSHR-NH2) | – | – | – | – | – | 1.06 | 1.16 | 0.77 | 0.93
